Results taken from patent US12065421B2, “Inhibitors of oplophorus luciferase-derived bioluminescent complexes” (priority 2018, dated 2024).

Target: T1, NanoBiT® HiBiT non-luminescent peptide and LgBiT non-luminescent polypeptide (HiBiT/LgBiT bioluminescent complex) (Oplophorus gracilirostris, UniProt Q9GV45, A31E/A60N/A81I/C191F/D135N/E192K/F58L/F95D/G184S/G42A/G62A/G78A/G94A/G98A/H120P/I103V/I117V/I134L/K70R/L176M/L195S/L54V/L73R/L99Q/M102E/N171T/N193K/P142E/Q151K/Q38E/Q45L/T186S/V71I/Y165I)
T1 construct: fused on or other part: N-terminal Met-Val on LgBiT in place of the signal peptide (residues 1-27); The chain is split between residues 184 and 185 into LgBiT and the 11-residue HiBiT peptide (residues 185-195); C-terminal A196 is absent
T1 sequence (Q9GV45 other isoform, or with tags, fused parts or gaps with the stated changes): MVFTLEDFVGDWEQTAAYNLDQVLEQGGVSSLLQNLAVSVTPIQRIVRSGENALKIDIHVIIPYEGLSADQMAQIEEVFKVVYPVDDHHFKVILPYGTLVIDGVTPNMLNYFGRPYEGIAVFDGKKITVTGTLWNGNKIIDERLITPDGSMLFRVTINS
Test: biochemical

SMILES	IC50
Cc1ccc(NC(=O)c2ccccc2NS(=O)(=O)c2cccc(N)c2)cc1 [JRW-1255, 2-((3-aminophenyl)sulfonamido)-N-(p-tolyl)benzamide]	0.06 µM
Cc1ccc(NC(=O)c2ccccc2NS(=O)(=O)c2cccc(CO)c2)cc1 [JRW-1261, 2-((3-(hydroxymethyl)phenyl)sulfonamido)-N-(p-tolyl)benzamide]	0.17 µM
CCCCOc1cccc(S(=O)(=O)Nc2ccccc2C(=O)Nc2ccc(C)cc2)c1 [JRW-1266, 2-((3-butoxyphenyl)sulfonamido)-N-(p-tolyl)benzamide]	1.5 µM
Cc1ccc(NC(=O)c2ccccc2NS(=O)(=O)c2cccc(Br)c2)cc1 [JRW-1267, 2-((3-bromophenyl)sulfonamido)-N-(p-tolyl)benzamide]	0.036 µM
CCCCNc1cccc(S(=O)(=O)Nc2ccccc2C(=O)Nc2ccc(C)cc2)c1 [JRW-1269, 2-((3-(butylamino)phenyl)sulfonamido)-N-(p-tolyl)benzamide]	1.1 µM
CCCCC#Cc1cccc(S(=O)(=O)Nc2ccccc2C(=O)Nc2ccc(C)cc2)c1 [JRW-1270, 2-((3-(hex-1-yn-1-yl)phenyl)sulfonamido)-N-(p-tolyl)benzamide]	1.2 µM
Cc1ccc(NC(=O)c2ccccc2NS(=O)(=O)c2cccc(C#CCO)c2)cc1 [JRW-1272, 2-((3-(3-hydroxyprop-1-yn-1-yl)phenyl)sulfonamido)-N-(p-tolyl)benzamide]	0.7 µM
Cc1ccc(NC(=O)c2ccccc2NS(=O)(=O)c2cccc(CCCO)c2)cc1 [JRW-1275, 2-((3-(3-hydroxypropyl)phenyl)sulfonamido)-N-(p-tolyl)benzamide]	0.34 µM
Cc1ccc(S(=O)(=O)Nc2ccccc2C(=O)Nc2ccccc2Br)cc1 [JRW-1282, N-(2-bromophenyl)-2-((4-methylphenyl)sulfonamido)benzamide]	0.2 µM
Cc1ccc(S(=O)(=O)Nc2ccccc2C(=O)Nc2cccc(Br)c2)cc1 [JRW-1283, N-(3-bromophenyl)-2-((4-methylphenyl)sulfonamido)benzamide]	0.046 µM
Cc1ccc(NC(=O)c2ccccc2NS(=O)(=O)c2ccc(C(F)(F)F)cc2)cc1 [JRW-1284, N-(p-tolyl)-2-((4-(trifluoromethyl)phenyl)sulfonamido)benzamide]	0.71 µM
COc1ccc(S(=O)(=O)Nc2ccccc2C(=O)Nc2ccc(C)cc2)cc1 [JRW-1285, 2-((4-methoxyphenyl)sulfonamido)-N-(p-tolyl)benzamide]	0.36 µM
Cc1ccc(NC(=O)c2ccccc2NS(=O)(=O)c2ccc(Br)cc2)cc1 [JRW-1287, 2-((4-bromophenyl)sulfonamido)-N-(p-tolyl)benzamide]	0.15 µM
Cc1ccc(S(=O)(=O)Nc2ccccc2C(=O)Nc2ccc(-c3ccccc3)cc2)cc1 [JRW-1288, N-([1,1′-biphenyl]-4-yl)-2-((4-methylphenyl)sulfonamido)benzamide]	0.11 µM
COc1ccccc1NC(=O)c1ccccc1NS(=O)(=O)c1ccc(C)cc1 [JRW-1292, N-(2-methoxyphenyl)-2-((4-methylphenyl)sulfonamido)benzamide]	0.59 µM
Cc1ccc(S(=O)(=O)Nc2ccccc2C(=O)Nc2cccc(-c3ccccc3)c2)cc1 [JRW-1297, N-([1,1′-biphenyl]-3-yl)-2-((4-methylphenyl)sulfonamido)benzamide]	0.1 µM
COc1cccc(NC(=O)c2ccccc2NS(=O)(=O)c2ccc(C)cc2)c1 [JRW-1299, N-(3-methoxyphenyl)-2-((4-methylphenyl)sulfonamido)benzamide]	0.09 µM
COc1ccc(NC(=O)c2ccccc2NS(=O)(=O)c2ccc(C)cc2)cc1 [JRW-1300, N-(4-methoxyphenyl)-2-((4-methylphenyl)sulfonamido)benzamide]	0.043 µM
CCN(c1ccccc1C(=O)Nc1ccc(OC)cc1)S(=O)(=O)c1ccc(C)cc1 [JRW-1325, 2-((N-ethyl-4-methylphenyl)sulfonamido)-N-(4-methoxyphenyl)benzamide]	1.3 µM
Cc1ccc(NC(=O)c2ccccc2NS(=O)(=O)c2cccc(OC(F)(F)F)c2)cc1 [JRW-1328, N-(p-tolyl)-2-((3-(trifluoromethoxy)phenyl)sulfonamido)benzamide]	1.1 µM
Cc1ccc(S(=O)(=O)Nc2cc(F)ccc2C(=O)Nc2cc3ccccc3s2)cc1 [JRW-1346, N-(benzo[b]thiophen-2-yl)-4-fluoro-2-((4-methylphenyl)sulfonamido)benzamide]	0.014 µM
Cc1ccc(S(=O)(=O)Nc2ccc(F)cc2C(=O)Nc2cc3ccccc3s2)cc1 [JRW-1347, N-(benzo[b]thiophen-2-yl)-5-fluoro-2-((4-methylphenyl)sulfonamido)benzamide]	0.0008 µM
Cc1ccc(S(=O)(=O)Nc2ccc(C(F)(F)F)cc2C(=O)Nc2cc3ccccc3s2)cc1 [JRW-1388, N-(benzo[b]thiophen-2-yl)-2-((4-methylphenyl)sulfonamido)-5-(trifluoromethyl)benzamide]	0.00058 µM
